ChEMBL document CHEMBL2401670, “Synthesis and biological evaluation of rhodanine derivatives bearing a quinoline moiety as potent antimicrobial agents” (Bioorg Med Chem Lett, 2013)
In brackets after ≈: the same amount, converted by molar mass.

Legend:
Escherichia coli = assay: Antibacterial activity against Escherichia coli CCARM 1356 after 24 hrs by broth microdilution method; format: functional; settings: CCARM 1356, 24 h
Staphylococcus aureus [1] = assay: Antibacterial activity against methicillin-resistant Staphylococcus aureus CCARM 3167 after 24 hrs by broth microdilution method; format: functional; settings: CCARM 3167, 24 h
Staphylococcus aureus [2] = assay: Antibacterial activity against quinolone-resistant Staphylococcus aureus CCARM 3519 after 24 hrs by broth microdilution method; format: functional; settings: CCARM 3519, 24 h
Staphylococcus aureus [3] = assay: Antibacterial activity against quinolone-resistant Staphylococcus aureus CCARM 3505 after 24 hrs by broth microdilution method; format: functional; settings: CCARM 3505, 24 h
Staphylococcus aureus [4] = assay: Antibacterial activity against methicillin-resistant Staphylococcus aureus CCARM 3506 after 24 hrs by broth microdilution method; format: functional; settings: CCARM 3506, 24 h
Staphylococcus aureus [5] = assay: Antibacterial activity against Staphylococcus aureus KCTC 209 after 24 hrs by broth microdilution method; format: functional; settings: KCTC 209, 24 h
Staphylococcus aureus [6] = assay: Antibacterial activity against Staphylococcus aureus KCTC 503 after 24 hrs by broth microdilution method; format: functional; settings: KCTC 503, 24 h
Staphylococcus aureus [7] = assay: Antibacterial activity against Staphylococcus aureus RN4220 after 24 hrs by broth microdilution method; format: functional; settings: RN4220, 24 h
HeLa = assay: Cytotoxicity against human HeLa cells after 48 hrs by MTT assay; format: cell-based

SMILES	MIC (Escherichia coli) [µg/mL]	MIC (Staphylococcus aureus [1]) [µg/mL]	MIC (Staphylococcus aureus [2]) [µg/mL]	MIC (Staphylococcus aureus [3]) [µg/mL]	MIC (Staphylococcus aureus [4]) [µg/mL]	MIC (Staphylococcus aureus [5]) [µg/mL]	MIC (Staphylococcus aureus [6]) [µg/mL]	MIC (Staphylococcus aureus [7]) [µg/mL]	IC50 (HeLa) [µg/mL]
O=C(O)[C@H](Cc1ccccc1)N1C(=O)/C(=C/c2cc3cc(OCc4ccccc4Br)ccc3nc2Cl)SC1=S	> 64	2 (≈ 3.13 µM)	2 (≈ 3.13 µM)	2 (≈ 3.13 µM)	2 (≈ 3.13 µM)	8 (≈ 12.5 µM)	8 (≈ 12.5 µM)	4 (≈ 6.25 µM)	–
O=C(O)[C@H](Cc1ccccc1)N1C(=O)/C(=C/c2cc3cc(OCc4ccc(Cl)cc4)ccc3nc2Cl)SC1=S	> 64	2 (≈ 3.36 µM)	2 (≈ 3.36 µM)	2 (≈ 3.36 µM)	2 (≈ 3.36 µM)	8 (≈ 13.4 µM)	4 (≈ 6.72 µM)	4 (≈ 6.72 µM)	–
O=C(O)[C@H](Cc1ccccc1)N1C(=O)/C(=C/c2cc3cc(OCc4ccccc4F)ccc3nc2Cl)SC1=S	> 64	1 (≈ 1.73 µM)	2 (≈ 3.45 µM)	2 (≈ 3.45 µM)	2 (≈ 3.45 µM)	64 (≈ 111 µM)	8 (≈ 13.8 µM)	4 (≈ 6.91 µM)	–
O=C(O)[C@H](Cc1ccccc1)N1C(=O)/C(=C/c2cc3cc(OCc4cccc(F)c4)ccc3nc2Cl)SC1=S	> 64	2 (≈ 3.45 µM)	2 (≈ 3.45 µM)	1 (≈ 1.73 µM)	1 (≈ 1.73 µM)	64 (≈ 111 µM)	4 (≈ 6.91 µM)	4 (≈ 6.91 µM)	–
O=C(O)[C@H](Cc1ccccc1)N1C(=O)/C(=C/c2cc3cc(OCc4ccc(F)cc4)ccc3nc2Cl)SC1=S	> 64	2 (≈ 3.45 µM)	4 (≈ 6.91 µM)	2 (≈ 3.45 µM)	2 (≈ 3.45 µM)	32 (≈ 55.3 µM)	4 (≈ 6.91 µM)	4 (≈ 6.91 µM)	–
CCC(C)[C@@H](C(=O)O)N1C(=O)/C(=C/c2cc3cc(OCc4ccccc4Cl)ccc3nc2Cl)SC1=S (stereo partly drawn)	> 64	2 (≈ 3.56 µM)	2 (≈ 3.56 µM)	2 (≈ 3.56 µM)	1 (≈ 1.78 µM)	64 (≈ 114 µM)	8 (≈ 14.2 µM)	4 (≈ 7.12 µM)	–
CCC(C)[C@@H](C(=O)O)N1C(=O)/C(=C/c2cc3cc(OCc4cccc(Cl)c4)ccc3nc2Cl)SC1=S (stereo partly drawn)	> 64	2 (≈ 3.56 µM)	2 (≈ 3.56 µM)	1 (≈ 1.78 µM)	1 (≈ 1.78 µM)	> 64	4 (≈ 7.12 µM)	2 (≈ 3.56 µM)	–
CCC(C)[C@@H](C(=O)O)N1C(=O)/C(=C/c2cc3cc(OCc4ccc(Cl)cc4)ccc3nc2Cl)SC1=S (stereo partly drawn)	> 64	1 (≈ 1.78 µM)	2 (≈ 3.56 µM)	2 (≈ 3.56 µM)	1 (≈ 1.78 µM)	8 (≈ 14.2 µM)	4 (≈ 7.12 µM)	2 (≈ 3.56 µM)	–
CCC(C)[C@@H](C(=O)O)N1C(=O)/C(=C/c2cc3cc(OCc4ccccc4F)ccc3nc2Cl)SC1=S (stereo partly drawn)	> 64	2 (≈ 3.67 µM)	2 (≈ 3.67 µM)	2 (≈ 3.67 µM)	1 (≈ 1.83 µM)	32 (≈ 58.7 µM)	4 (≈ 7.34 µM)	2 (≈ 3.67 µM)	–
CCC(C)[C@@H](C(=O)O)N1C(=O)/C(=C/c2cc3cc(OCc4cccc(F)c4)ccc3nc2Cl)SC1=S (stereo partly drawn)	> 64	2 (≈ 3.67 µM)	2 (≈ 3.67 µM)	2 (≈ 3.67 µM)	1 (≈ 1.83 µM)	32 (≈ 58.7 µM)	8 (≈ 14.7 µM)	2 (≈ 3.67 µM)	–
CCC(C)[C@@H](C(=O)O)N1C(=O)/C(=C/c2cc3cc(OCc4ccc(F)cc4)ccc3nc2Cl)SC1=S (stereo partly drawn)	> 64	2 (≈ 3.67 µM)	1 (≈ 1.83 µM)	2 (≈ 3.67 µM)	1 (≈ 1.83 µM)	2 (≈ 3.67 µM)	4 (≈ 7.34 µM)	1 (≈ 1.83 µM)	–
CCC(C)[C@@H](C(=O)O)N1C(=O)/C(=C/c2cc3cc(OCc4ccc(C)cc4)ccc3nc2Cl)SC1=S (stereo partly drawn)	> 64	2 (≈ 3.7 µM)	2 (≈ 3.7 µM)	2 (≈ 3.7 µM)	2 (≈ 3.7 µM)	4 (≈ 7.39 µM)	4 (≈ 7.39 µM)	2 (≈ 3.7 µM)	9.09 (≈ 16.8 µM)
CC(C)C[C@@H](C(=O)O)N1C(=O)/C(=C/c2cc3cc(OCc4ccccc4Cl)ccc3nc2Cl)SC1=S	> 64	1 (≈ 1.78 µM)	2 (≈ 3.56 µM)	1 (≈ 1.78 µM)	1 (≈ 1.78 µM)	4 (≈ 7.12 µM)	8 (≈ 14.2 µM)	1 (≈ 1.78 µM)	–
CC(C)C[C@@H](C(=O)O)N1C(=O)/C(=C/c2cc3cc(OCc4cccc(Cl)c4)ccc3nc2Cl)SC1=S	> 64	1 (≈ 1.78 µM)	2 (≈ 3.56 µM)	2 (≈ 3.56 µM)	2 (≈ 3.56 µM)	4 (≈ 7.12 µM)	64 (≈ 114 µM)	2 (≈ 3.56 µM)	–
CC(C)C[C@@H](C(=O)O)N1C(=O)/C(=C/c2cc3cc(OCc4ccc(F)cc4)ccc3nc2Cl)SC1=S	> 64	2 (≈ 3.67 µM)	1 (≈ 1.83 µM)	2 (≈ 3.67 µM)	2 (≈ 3.67 µM)	8 (≈ 14.7 µM)	8 (≈ 14.7 µM)	2 (≈ 3.67 µM)	–
Cc1ccc(COc2ccc3nc(Cl)c(/C=C4\SC(=S)N([C@@H](CC(C)C)C(=O)O)C4=O)cc3c2)cc1	> 64	1 (≈ 1.85 µM)	1 (≈ 1.85 µM)	1 (≈ 1.85 µM)	2 (≈ 3.7 µM)	8 (≈ 14.8 µM)	8 (≈ 14.8 µM)	1 (≈ 1.85 µM)	8.84 (≈ 16.3 µM)
O=C(O)[C@H](Cc1ccccc1)N1C(=O)/C(=C/c2cc3cc(OCc4ccccc4Cl)ccc3nc2Cl)SC1=S	> 64	2 (≈ 3.36 µM)	2 (≈ 3.36 µM)	2 (≈ 3.36 µM)	2 (≈ 3.36 µM)	64 (≈ 107 µM)	8 (≈ 13.4 µM)	4 (≈ 6.72 µM)	–
O=C(O)[C@H](Cc1ccccc1)N1C(=O)/C(=C/c2cc3cc(OCc4cccc(Cl)c4)ccc3nc2Cl)SC1=S	> 64	2 (≈ 3.36 µM)	2 (≈ 3.36 µM)	2 (≈ 3.36 µM)	2 (≈ 3.36 µM)	64 (≈ 107 µM)	8 (≈ 13.4 µM)	2 (≈ 3.36 µM)	–
COc1c(N2CCNC(C)C2)c(F)cc2c(=O)c(C(=O)O)cn(C3CC3)c12 (stereo not drawn) [GATIFLOXACIN]	16 (≈ 42.6 µM)	2 (≈ 5.33 µM)	4 (≈ 10.7 µM)	8 (≈ 21.3 µM)	1 (≈ 2.66 µM)	2 (≈ 5.33 µM)	4 (≈ 10.7 µM)	0.25 (≈ 0.666 µM)	–
COc1c(N2C[C@@H]3CCCN[C@@H]3C2)c(F)cc2c(=O)c(C(=O)O)cn(C3CC3)c12 [MOXIFLOXACIN]	> 64	–	4 (≈ 9.96 µM)	–	–	–	–	0.25 (≈ 0.623 µM)	–
CCn1cc(C(=O)O)c(=O)c2cc(F)c(N3CCNCC3)cc21 [NORFLOXACIN]	16 (≈ 50.1 µM)	8 (≈ 25.1 µM)	> 64	> 64	4 (≈ 12.5 µM)	2 (≈ 6.26 µM)	2 (≈ 6.26 µM)	2 (≈ 6.26 µM)	–
Cc1onc(-c2ccccc2)c1C(=O)N[C@@H]1C(=O)N2[C@@H]1SC(C)(C)[C@@H]2C(=O)O [OXACILLIN]	> 64	> 64	1 (≈ 2.49 µM)	1 (≈ 2.49 µM)	> 64	1 (≈ 2.49 µM)	1 (≈ 2.49 µM)	1 (≈ 2.49 µM)	–
